In assay [1] the test system is rat aortic smooth muscle cells (A7r5). The experiment in a line: Cell proliferation assay (cell count), A7r5. The format is cell-based. As to conditions: 50 μM alpha-tocopherol, lycopene 0 μM, 24 hours, vs solvent control. The method, then:
Culture media and antibiotics were from Gibco (Grand Island, N.Y., USA). Fetal calf serum was from PAA Labor (Linz, Austria), Human prostate carcinoma, androgen insensitive, cell lines DU-145 and PC-3, colon carcinoma cell line Caco-2, hepatoma cell line HepG2, and rat aortic smooth muscle cell line A7r5 were from American Type Culture Collection (Rockville, Md., USA). DU-146 cells were grown in minimum essential medium (EM), PC-3 cells in F-12K medium, both containing antibiotics and 10% fetal calf serum (FCS). Caco-2 cells were grown in MEM containing 20% FCS. HepG2 cells were grown in MEM containing 10% FCS, and A7r5 cells were grown in DMEM containing 10% FCS. Cell proliferation was assayed using two methods, cell count and thymidine incorporation: Cell count. Cells were seeded into 6-multiwell plates (20,000 cells/well). When cells reached approximately 50% confluence, the indicated concentrations of the compounds were added. THF was added to control cells to account for the effect of the solvent in the compound solutions. Cells were washed, trypsinized, resuspended and counted in duplicate at the indicated times by trypan blue dye exclusion with a hemocytometer. […] The values in Table 1 are expressed as percent of inhibition of proliferation as compared to proliferation of control cells treated with solvent alone. […] Proliferation was assessed as indicated in the Materials and Methods. […]

For assay [2], the system named is Prostate cancer cells (DU-145). The assay is described as follows: Cell proliferation assay (cell count), DU-145. The class given is cell-based, human. As to conditions: for potentiation of the anti-proliferative effect of lycopene: DU-145, 50 μM of the compound with 1 μM lycopene (FIG. 3). The method, then: Culture media and antibiotics were from Gibco (Grand Island, N.Y., USA). Fetal calf serum was from PAA Labor (Linz, Austria), Human prostate carcinoma, androgen insensitive, cell lines DU-145 and PC-3, colon carcinoma cell line Caco-2, hepatoma cell line HepG2, and rat aortic smooth muscle cell line A7r5 were from American Type Culture Collection (Rockville, Md., USA). DU-146 cells were grown in minimum essential medium (EM), PC-3 cells in F-12K medium, both containing antibiotics and 10% fetal calf serum (FCS). Caco-2 cells were grown in MEM containing 20% FCS. HepG2 cells were grown in MEM containing 10% FCS, and A7r5 cells were grown in DMEM containing 10% FCS. Cell proliferation was assayed using two methods, cell count and thymidine incorporation: Cell count. Cells were seeded into 6-multiwell plates (20,000 cells/well). When cells reached approximately 50% confluence, the indicated concentrations of the compounds were added. THF was added to control cells to account for the effect of the solvent in the compound solutions. Cells were washed, trypsinized, resuspended and counted in duplicate at the indicated times by trypan blue dye exclusion with a hemocytometer. […] The values in Table 1 are expressed as percent of inhibition of proliferation as compared to proliferation of control cells treated with solvent alone. Prostate cancer cells (DU-145), hepatoma cells (HepG2), colon carcinoma cells (Caco-2) and rat aortic smooth muscle cells (A7r5) were treated with different concentrations of lycopene as indicated and 50 μM alpha-tocopherol for 24 hours. […] Proliferation was assessed as indicated in the Materials and Methods. Data are means±SD of five experiments in duplicate.

Assay [3] concerns colon carcinoma cells (Caco-2). The experiment in a line: Cell proliferation assay (thymidine incorporation), Caco-2. As to conditions: 50 μM alpha-tocopherol, lycopene 0 μM, 24 hours, vs solvent control. The class given is cell-based, human. The procedure:
(§1) Culture media and antibiotics were from Gibco (Grand Island, N.Y., USA). Fetal calf serum was from PAA Labor (Linz, Austria), Human prostate carcinoma, androgen insensitive, cell lines DU-145 and PC-3, colon carcinoma cell line Caco-2, hepatoma cell line HepG2, and rat aortic smooth muscle cell line A7r5 were from American Type Culture Collection (Rockville, Md., USA). DU-146 cells were grown in minimum essential medium (EM), PC-3 cells in F-12K medium, both containing antibiotics and 10% fetal calf serum (FCS). Caco-2 cells were grown in MEM containing 20% FCS. HepG2 cells were grown in MEM containing 10% FCS, and A7r5 cells were grown in DMEM containing 10% FCS.
(§2) Cell proliferation was assayed using two methods, cell count and thymidine incorporation:
(§3) Thymidine incorporation. Colon carcinoma cells (Caco-2) and hepatoma cells (HepG2) seeded into 6 multiwell plates (30,000 cells/well) after treatment were pulsed with [^3H] thymidine (0.5 μCi per well) for two hours. […] The radioactivity incorporated into the acid-insoluble material was determined in a liquid scintillation analyzer.
(§4) The values in Table 1 are expressed as percent of inhibition of proliferation as compared to proliferation of control cells treated with solvent alone. […] Proliferation was assessed as indicated in the Materials and Methods. […]

Assay [4] has as its system hepatoma cells (HepG2). The assay is described as follows: Cell proliferation assay (thymidine incorporation), HepG2. The format is cell-based, human. As to conditions: 50 μM alpha-tocopherol, lycopene 0 μM, 24 hours, vs solvent control. The method, then:
as §1, §2, §3, §4

Assay [5] relates to prostate carcinoma cell proliferation. As to conditions: in vitro studies, background; cited from earlier work.

Regarding `Cc1c(C)c2c(c(C)c1O)CCC(C)(CCCC(C)CCCC(C)CCCC(C)C)O2` (racemic) [Alpha-Tocopherol, DL-alpha-tocopherol], the “percent of inhibition of proliferation” value in assay [1] worked out at 40 ± 5%; in assay [2] (DU 145, 50 μM alpha-tocopherol, lycopene 0 μM, 24 hours, vs solvent control), 40 ± 6%; in assay [3], 25 ± 3%; in assay [4], 5 ± 1%. Besides, the “potentiation of the anti-proliferative effect of lycopene” value (“potentiation” below) in assay [2] was “potentiates the anti-proliferative effect of lycopene”.
In the case of `CC(C)(Sc1cc(C(C)(C)C)c(O)c(C(C)(C)C)c1)Sc1cc(C(C)(C)C)c(O)c(C(C)(C)C)c1` [probucol], the “potentiation” value in assay [2] was “this effect is specific to alpha-tocopherol as compared to other anti-oxidants”.
With `O=C1O[C@H]([C@@H](O)CO)C(O)=C1O` [ascorbic acid, L-ascorbic acid], the “potentiation” value in assay [2] was “this effect is specific to alpha-tocopherol as compared to other anti-oxidants”.
Same read-out and setting: the entry for `Cc1cc(O)c(C)c2c1O[C@](C)(CCC[C@H](C)CCC[C@H](C)CCCC(C)C)CC2` (racemic) [β-tocopherol, DL-β-tocopherol] is “this effect is specific to alpha-tocopherol as compared to other anti-oxidants”.
Take `CC(C)=CCC/C(C)=C/C=C/C(C)=C/C=C/C(C)=C/C=C/C=C(C)/C=C/C=C(C)/C=C/C=C(\C)CCC=C(C)C` [lycopene]: in assay [5], the “concentrations with inhibitory effect on prostate carcinoma cell proliferation” value was not below 50 µM.

These data come from US6350776B1, “Method of treating proliferative disease with lycopene and alpha-tocopherol” (priority 1999, dated 2002).
